Reference: patent US8481544B2, “Antibacterial compositions” (Biota Europe Limited, priority 2006, dated 2013)
≈ marks a conversion by molar mass, not a printed value. Where two headings read alike, the source gives them in different places.

Key:
[1] = test system: Streptococcus agalactiae ATCC 13813; experiment: MIC against Streptococcus agalactiae ATCC 13813; assay type: cell-based; conditions: ATCC13813
[2] = test system: Moraxella catarrhalis ATCC 25240; experiment: MIC against Moraxella catarrhalis ATCC 25240; assay type: cell-based; conditions: ATCC25240
[3] = test system: Enterococcus faecium (VSE) ATCC 19434; experiment: MIC against Enterococcus faecium (VSE) ATCC 19434; assay type: cell-based; conditions: ATCC19434
[4] = test system: Staphylococcus epidermidis ATCC 12228; experiment: MIC against Staphylococcus epidermidis ATCC 12228; assay type: cell-based; conditions: ATCC12228
[5] = test system: Enterococcus faecalis (VRE) ATCC 51299; experiment: MIC against Enterococcus faecalis (VRE) ATCC 51299; assay type: cell-based
[6] = test system: Streptococcus mutans ATCC 35668; experiment: MIC against Streptococcus mutans ATCC 35668; assay type: cell-based; conditions: ATCC35668
[7] = test system: Streptococcus pyogenes ATCC 51339; experiment: MIC against Streptococcus pyogenes ATCC 51339; assay type: cell-based; conditions: ATCC51339
[8] = test system: Enterococcus faecalis ATCC 29212; experiment: MIC against Enterococcus faecalis ATCC 29212; assay type: cell-based; conditions: ATCC29212
Summary of the method: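 MIC measured by broth microdilution or agar dilution following CLSI guidelines (M7-A7 for aerobes, M11-A6 for anaerobes).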

[9] = test system: Staphylococcus aureus ATCC 29213; experiment: MIC against Staphylococcus aureus ATCC 29213; assay type: cell-based; conditions: ATCC29213
[10] = test system: Streptococcus pneumoniae ATCC 49619; experiment: MIC against Streptococcus pneumoniae ATCC 49619; assay type: cell-based; conditions: ATCC49619
[11] = test system: Enterococcus faecium (VRE) ATCC 700221; experiment: MIC against Enterococcus faecium (VRE) ATCC 700221; assay type: cell-based
[12] = test system: Staphylococcus haemolyticus ATCC 29970; experiment: MIC against Staphylococcus haemolyticus ATCC 29970; assay type: cell-based; conditions: ATCC29970
[13] = test system: Staphylococcus aureus VRS2; experiment: MIC against Staphylococcus aureus VRS2; assay type: cell-based; conditions: Isolate ID VRS2
[14] = test system: Streptococcus pneumoniae (FQR) SP 25058; experiment: MIC against Streptococcus pneumoniae (FQR) SP 25058; assay type: cell-based; conditions: Isolate ID SP 25058
[15] = test system: Propionibacterium acnes ATCC 11821; experiment: MIC against Propionibacterium acnes ATCC 11821; assay type: cell-based; conditions: Cutibacterium acnes, ATCC11821; Isolate ID ATCC 11821
[16] = test system: Streptococcus pneumoniae (MacR) SP 051431; experiment: MIC against Streptococcus pneumoniae (MacR) SP 051431; assay type: cell-based; conditions: Isolate ID SP 051431
[17] = test system: Neisseria gonorrhoeae NG ATCC 49226; experiment: MIC against Neisseria gonorrhoeae NG ATCC 49226; assay type: cell-based; conditions: ATCC49226, Isolate ID NG ATCC 49226
[18] = test system: Streptococcus pneumoniae SP 051430; experiment: MIC against Streptococcus pneumoniae SP 051430; assay type: cell-based; conditions: SP051430, Isolate ID SP 051430
[19] = test system: Helicobacter pylori DJF 11; experiment: MIC against Helicobacter pylori DJF 11; assay type: cell-based; conditions: DJF11, Isolate ID DJF 11
[20] = test system: Legionella pneumophila LP NCTC 11192; experiment: microbe, parasite or virus in culture; assay type: cell-based; conditions: NCTC11192, read-out: MIC (Activity) against Legionella pneumophila
[21] = test system: Streptococcus pneumoniae ATCC 700671; experiment: MIC against Streptococcus pneumoniae ATCC 700671; assay type: cell-based; conditions: ATCC700671, Isolate ID ATCC 700671
[22] = test system: Mycoplasma hominis MH NCTC 10111; experiment: MIC against Mycoplasma hominis MH NCTC 10111; assay type: cell-based; conditions: Metamycoplasma hominis, NCTC10111; Isolate ID MH NCTC 10111
[23] = test system: Bacteroides fragilis ATCC 25285; experiment: MIC against Bacteroides fragilis ATCC 25285; assay type: cell-based; conditions: ATCC25285, Isolate ID ATCC 25285
[24] = test system: Clostridium difficile NQS 84; experiment: MIC against Clostridium difficile NQS 84; assay type: cell-based; conditions: Clostridioides difficile, NQS84; Isolate ID NQS 84
From the text: Institute. Methods for Dilution Antimicrobial Susceptibility Tests for Bacteria That Grow Aerobically; Approved Standard—Seventh Edition. Document M7-A7. CLSI, Wayne, Pa., 2006; Clinical Laboratories and Standards Institute. Methods for Antimicrobial Susceptibility Testing of Anaerobic Bacteria; Approved Standard—Sixth Edition. Document M11-A6. CLSI, Wayne, Pa., 2004).

[25] = test system: Escherichia coli N43; experiment: MIC against Escherichia coli N43; assay type: cell-based; conditions: Isolate ID N43
[26] = test system: Mycoplasma pneumoniae MP 9; experiment: MIC against Mycoplasma pneumoniae MP 9; assay type: cell-based; conditions: MP9, Isolate ID MP 9
[27] = test system: Clostridium perfringens IV306001; experiment: microbe, parasite or virus in culture; assay type: cell-based; conditions: IV306001, read-out: MIC (Activity) against Clostridium perfringens
[28] = test system: Chlamydia trachomatis T71214; experiment: MIC against Chlamydia trachomatis T71214; assay type: cell-based; conditions: Isolate ID T71214
[29] = test system: Staphylococcus aureus; experiment: mouse Staphylococcus aureus septicaemia model of infection, survival at day 7; assay type: in vivo
Protocol: Some of the Example compounds were also tested for activity in a mouse Staphylococcus aureus septicaemia model of infection.

[30] = test system: Staphylococcus aureus VRS1; experiment: MIC against Staphylococcus aureus VRS1; assay type: cell-based; conditions: Isolate ID VRS1
[31] = test system: Lactococcus lactis ATCC 11454; experiment: MIC against Lactococcus lactis ATCC 11454; assay type: cell-based; conditions: ATCC11454, Isolate ID ATCC 11454
[32] = test system: Mycoplasma hominis MH 10; experiment: MIC against Mycoplasma hominis MH 10; assay type: cell-based; conditions: Metamycoplasma hominis, MH10; Isolate ID MH 10
[33] = test system: Staphylococcus aureus VRS3; experiment: MIC against Staphylococcus aureus VRS3; assay type: cell-based; conditions: Isolate ID VRS3
[34] = test system: Mycoplasma pneumoniae MP NCTC 10119; experiment: MIC against Mycoplasma pneumoniae MP NCTC 10119; assay type: cell-based; conditions: NCTC10119, Isolate ID MP NCTC 10119
[35] = test system: Streptococcus pneumoniae (FQR) SP 26054; experiment: MIC against Streptococcus pneumoniae (FQR) SP 26054; assay type: cell-based; conditions: Isolate ID SP 26054
[36] = test system: Chlamydophila pneumoniae IOL207; experiment: MIC against Chlamydophila pneumoniae IOL207; assay type: cell-based; conditions: Chlamydia pneumoniae; Isolate ID IOL207
[37] = test system: Haemophilus influenzae ATCC 49247; experiment: MIC against Haemophilus influenzae ATCC 49247; assay type: cell-based; conditions: ATCC49247, Isolate ID ATCC 49247
[38] = test system: Listeria monocytogenes ATCC 19115; experiment: MIC against Listeria monocytogenes ATCC 19115; assay type: cell-based; conditions: ATCC19115, Isolate ID ATCC 19115

## CCNC(=O)Nc1nc2cc(-c3cccnc3)nc(-c3cccnc3)c2s1 [Example 180, 1-(4,6-Di-pyridin-3-yl-thiazolo[5,4-c]pyridin-2-yl)-3-ethyl-urea]
[1]
  MIC: 0.25 to 1 µg/mL (≈ 0.664 to 2.66 µM)
[2]; Moraxella catarrhalis ATCC 25240, read-out: MIC Activity
  MIC: 0.25 to 1 µg/mL (≈ 0.664 to 2.66 µM)
[3]; Enterococcus faecium (VSE) ATCC 19434, read-out: MIC Activity
  MIC: 2 to 16 µg/mL (≈ 5.31 to 42.5 µM)
[4]; Staphylococcus epidermidis ATCC 12228, read-out: MIC Activity
  MIC: 0.25 to 1 µg/mL (≈ 0.664 to 2.66 µM)
[5]; Enterococcus faecalis (VRE) ATCC 51299, read-out: MIC Activity
  MIC: 0.25 to 1 µg/mL (≈ 0.664 to 2.66 µM)
[6]; Streptococcus mutans ATCC 35668, read-out: MIC Activity
  MIC: 0.25 to 1 µg/mL (≈ 0.664 to 2.66 µM)
[7]; Streptococcus pyogenes ATCC 51339, read-out: MIC Activity
  MIC: 2 to 16 µg/mL (≈ 5.31 to 42.5 µM)
[8]; Enterococcus faecalis, ATCC 29212, Table 5, read-out: MIC against Enterococcus faecalis (Activity)
  MIC: 0.25 to 1 µg/mL (≈ 0.664 to 2.66 µM)
[9]; Staphylococcus aureus ATCC 29213, read-out: MIC Activity
  MIC: 2 to 16 µg/mL (≈ 5.31 to 42.5 µM)
[10]
  MIC: 0.25 to 1 µg/mL (≈ 0.664 to 2.66 µM)
[11]; Enterococcus faecium (VRE) ATCC 700221, read-out: MIC Activity
  MIC: 2 to 16 µg/mL (≈ 5.31 to 42.5 µM)
[12]; Staphylococcus haemolyticus ATCC 29970, read-out: MIC Activity
  MIC: 0.25 to 1 µg/mL (≈ 0.664 to 2.66 µM)

## CCNC(=O)Nc1nc2cc(-c3cccnc3)cc(-c3ccccn3)c2s1 [Example 163, 1-Ethyl-3-(5-pyridin-3-yl-7-pyridin-2-yl-benzothiazol-2-yl)-urea]
[2]; Moraxella catarrhalis, Isolate ID ATCC 25240, read-out: MIC (Activity) against Moraxella catarrhalis
  MIC: < 0.25 µg/mL
[13]
  MIC: < 0.25 µg/mL
[14]
  MIC: < 0.25 µg/mL
[15]
  MIC: < 0.25 µg/mL
[3]; Enterococcus faecium, Isolate ID ATCC 19434, read-out: MIC (Activity) against Enterococcus faecium (VSE)
  MIC: 0.25 to 1 µg/mL (≈ 0.666 to 2.66 µM)
[16]
  MIC: < 0.25 µg/mL
[17]
  MIC: 0.25 to 1 µg/mL (≈ 0.666 to 2.66 µM)
[4]; Staphylococcus epidermidis, Isolate ID ATCC 12228, read-out: MIC (Activity) against Staphylococcus epidermidis
  MIC: < 0.25 µg/mL
[18]
  MIC: < 0.25 µg/mL
[19]
  MIC: < 0.25 µg/mL
[5]; Enterococcus faecalis, Isolate ID ATCC 51299, read-out: MIC (Activity) against Enterococcus faecalis (VRE)
  MIC: < 0.25 µg/mL
[20]
  MIC: 0.25 to 1 µg/mL (≈ 0.666 to 2.66 µM)
[6]; Streptococcus mutans, Isolate ID ATCC 35668, read-out: MIC (Activity) against Streptococcus mutans
  MIC: < 0.25 µg/mL
[7]; Streptococcus pyogenes, Isolate ID ATCC 51339, read-out: MIC (Activity) against Streptococcus pyogenes
  MIC: 0.25 to 1 µg/mL (≈ 0.666 to 2.66 µM)
[21]
  MIC: < 0.25 µg/mL
[22]
  MIC: 0.25 to 1 µg/mL (≈ 0.666 to 2.66 µM)
[23]
  MIC: 2 to 16 µg/mL (≈ 5.33 to 42.6 µM)
[24]
  MIC: 0.25 to 1 µg/mL (≈ 0.666 to 2.66 µM)
[25]
  MIC: 2 to 16 µg/mL (≈ 5.33 to 42.6 µM)
[8]; Enterococcus faecalis ATCC 29212, read-out: MICs against Enterococcus faecalis, Activity
  MIC: < 0.25 µg/mL
[26]
  MIC: 0.25 to 1 µg/mL (≈ 0.666 to 2.66 µM)
[27]
  MIC: 0.25 to 1 µg/mL (≈ 0.666 to 2.66 µM)
[28]
  MIC: 0.25 to 1 µg/mL (≈ 0.666 to 2.66 µM)
[29]; 1 × 10 mg/kg intraperitoneal, 1 hour after inoculation
  Percent survival: 60
[29]; 1 × 30 mg/kg intraperitoneal, 1 hour after inoculation
  Percent survival: 100
[29]; 2 × 30 mg/kg intraperitoneal, 1 and 6 hours after inoculation
  Percent survival: 100
[30]
  MIC: < 0.25 µg/mL
[31]
  MIC: < 0.25 µg/mL
[32]
  MIC: 0.25 to 1 µg/mL (≈ 0.666 to 2.66 µM)
[33]
  MIC: < 0.25 µg/mL
[9]; Staphylococcus aureus, Isolate ID ATCC 29213, read-out: MIC (Activity) against Staphylococcus aureus
  MIC: 0.25 to 1 µg/mL (≈ 0.666 to 2.66 µM)
[34]
  MIC: 0.25 to 1 µg/mL (≈ 0.666 to 2.66 µM)
[35]
  MIC: < 0.25 µg/mL
[36]
  MIC: < 0.25 µg/mL
[11]; Enterococcus faecium, Isolate ID ATCC 700221, read-out: MIC (Activity) against Enterococcus faecium (VRE)
  MIC: < 0.25 µg/mL
[37]
  MIC: 2 to 16 µg/mL (≈ 5.33 to 42.6 µM)
[38]
  MIC: < 0.25 µg/mL
[12]; Staphylococcus haemolyticus, Isolate ID ATCC 29970, read-out: MIC (Activity) against Staphylococcus haemolyticus
  MIC: < 0.25 µg/mL
